Among the data in patent US20050222146A1, “N-substituted-n-sulfonylaminocyclopropane compounds and pharmaceutical use thereof” (priority 2003, published 2005) are IC50 values, retold here.

The structures appear in SMILES notation. Some results are limits rather than exact numbers.

In assay [1] the target is T1, aggrecanase-1 (Homo sapiens, UniProt O75173).
T1 sequence (O75173 213-837): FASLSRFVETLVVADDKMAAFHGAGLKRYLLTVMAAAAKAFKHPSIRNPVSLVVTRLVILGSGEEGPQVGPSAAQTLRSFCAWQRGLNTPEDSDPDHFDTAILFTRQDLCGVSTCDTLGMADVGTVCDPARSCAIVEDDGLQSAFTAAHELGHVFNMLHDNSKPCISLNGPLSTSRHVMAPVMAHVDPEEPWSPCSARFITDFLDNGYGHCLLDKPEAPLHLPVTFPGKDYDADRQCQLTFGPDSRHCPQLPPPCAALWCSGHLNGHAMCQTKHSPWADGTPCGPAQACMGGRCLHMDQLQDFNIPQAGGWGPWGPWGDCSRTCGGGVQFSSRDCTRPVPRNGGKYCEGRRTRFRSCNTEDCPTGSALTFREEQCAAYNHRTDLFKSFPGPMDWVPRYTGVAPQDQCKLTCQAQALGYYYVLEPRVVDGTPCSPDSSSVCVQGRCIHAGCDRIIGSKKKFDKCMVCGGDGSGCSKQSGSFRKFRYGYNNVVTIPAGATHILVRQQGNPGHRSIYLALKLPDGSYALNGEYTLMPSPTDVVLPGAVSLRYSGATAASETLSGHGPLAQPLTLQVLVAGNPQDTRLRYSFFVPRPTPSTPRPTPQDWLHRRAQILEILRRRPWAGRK
Briefly: Aggrecanase-1 inhibitory action, Particle Assay (GAG release from aggrecan-containing polyacrylamide particles). It is filed as biochemical. As to conditions: 37° C. for 15 hr, read-out: Experimental Example 1 IC50 AG1. As to the method: Aggrecanase-1 Inhibitory Action
Particle Assay was used for determination of aggrecanase activity.
(§1) The enzyme and substrate were diluted with Tris-HCl buffer, and test compounds were diluted with dimethyl sulfoxide (DMSO).
Test compounds and the enzyme were added into 96-well plate, and polyacrylamide particles containing aggrecan were added as a substrate and the mixture was incubated at 37° C. for 15 hr.
After incubation; the supernatant was transferred to another plate, and mixed with 1,9-dimethylmethylene blue. The absorbance at 595 nm was measured to quantify the amount of glycosaminoglycan (GAG) released in the reaction supernatant. Whale chondroitin sulfate was used as the standard of GAG. The inhibitory activity of the compound in each well (%) was calculated based on the values of enzyme-free well and inhibitor-free well. The inhibitory activity of the compound was represented as IC50 (μM).

The target of assay [2] is T2, MMP-1 (Homo sapiens, UniProt P03956).
T2 sequence (P03956 100-469): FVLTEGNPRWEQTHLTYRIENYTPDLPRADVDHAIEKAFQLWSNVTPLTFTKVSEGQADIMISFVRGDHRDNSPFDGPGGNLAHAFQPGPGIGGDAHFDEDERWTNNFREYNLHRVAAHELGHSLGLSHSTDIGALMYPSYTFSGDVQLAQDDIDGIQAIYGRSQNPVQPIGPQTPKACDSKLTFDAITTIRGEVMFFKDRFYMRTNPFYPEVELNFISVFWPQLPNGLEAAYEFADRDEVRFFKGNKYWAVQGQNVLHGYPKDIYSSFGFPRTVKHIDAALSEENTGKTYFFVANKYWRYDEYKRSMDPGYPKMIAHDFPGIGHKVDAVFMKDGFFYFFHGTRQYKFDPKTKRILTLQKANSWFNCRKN
The assay is described as follows: MMP-1 inhibitory action, Type I collagen Activity Measurement kit (FITC-labeled collagen type I). It is filed as biochemical. The note with it: 37° C. for 3 hr, read-out: Experimental Example 2 IC50 MMP1. As for the experimental part: For MMP-1 Assay, Type I collagen Activity Measurement kit (YAGAI YU-72013) modified to a 96-well plate format was used.
The principle of the kit is based on the property of collagen that becomes soluble in ethanol after being cleaved by MMP-1.
as §1
The enzyme and test compounds were added into 96-well plate, and fluorescein isothiocianate (FITC)-labeled collagen type I was added as a substrate and the mixture was incubated at 37° C. for 3 hr.
The reaction was terminated by addition of Tris-HCl buffer containing ethanol. After centrifugation, the supernatant containing denatured substrate was transferred to another 96-well plate. The collagenase activity of MMP-1 was determined by measuring FITC fluorescence intensity (excitation wavelength 485 nm, emission wavelength 530 nm) of each well. The inhibitory activity of the compound in each well (%) was calculated based on the values of enzyme-free well and inhibitor-free well. The inhibitory activity of the compound was represented as IC50 (μM).

In general, IC50 refers to the concentration at which inhibition is half-maximal. As to `N#Cc1cccc([C@@H]2C[C@@]2(C(=O)O)N(CC(=O)O)S(=O)(=O)c2ccc(-c3ccc(Cl)cc3)cc2)c1` (relative stereo) [Example 1-27, (1R*,2S*)-1-[carboxymethyl-(4′-chloro-biphenyl-4-sulfonyl)-amino]-2-(3-cyano-phenyl)-cyclopropanecarboxylic acid], the IC50 in assay [1] was < 0.1 µM; in assay [2], ≥ 10 µM.

Turning to `O=C(O)c1ncccc1CN([C@]1(C(=O)O)C[C@H]1c1ccccc1)S(=O)(=O)c1ccc(-c2ccc(Cl)cc2)cc1` (relative stereo) [Example 1-73, 3-{[((1R*, 2S*)-1-carboxy-2-phenyl-cyclopropyl)-(4′-chloro-biphenyl-4-sulfonyl)-amino]-methyl}-pyridin-2-carboxylic acid], the figures for the IC50 in assay [1] and in assay [2] were < 1 µM and ≥ 10 µM, respectively.

On to `CC(C)(O)C(=O)NCCN([C@]1(C(=O)O)C[C@H]1c1ccccc1)S(=O)(=O)c1ccc(-c2ccc(Cl)cc2)cc1` (relative stereo) [Example 1-107, (1R*,2S*)-1-{(4′-chloro-biphenyl-4-sulfonyl)-[2-(2-hydroxy-2-methyl-propionylamino)-ethyl]-amino}-2-phenyl-cyclopropanecarboxylic acid], for which the results for the IC50 in assay [1] and in assay [2] were < 1 µM and ≥ 1 µM, respectively.

For `O=C(CN([C@]1(C(=O)O)C[C@H]1c1ccccc1)S(=O)(=O)c1ccc(-c2ccc(Cl)cc2)cc1)N1CC(O)C(O)C1` (relative stereo) [Example 1-43, (1R*,2S*)-1-{(4′-chloro-biphenyl-4-sulfonyl)-[2-(3,4-dihydroxy-pyrrolidin-1-yl)-2-oxo-ethyl]-amino}-2-phenyl-cyclopropanecarboxylic acid], the values for the IC50 in assay [1] and in assay [2] were < 1 µM and ≥ 10 µM, respectively.

In the case of `O=C(O)c1csc(CN([C@]2(C(=O)O)C[C@H]2c2ccccc2)S(=O)(=O)c2ccc(-c3ccc(Cl)cc3)cc2)n1` (relative stereo) [Example 1-60, 2-{[((1R*, 2S*)-1-carboxy-2-phenyl-cyclopropyl)-(4′-chloro-biphenyl-4-sulfonyl)-amino]-methyl}-thiazole-4-carboxylic acid], the IC50 in assay [1] is < 1 µM; in assay [2] it was ≥ 10 µM.

Turning to `O=C(O)CN([C@]1(C(=O)O)C[C@H]1c1ccc(-c2ccccc2)cc1)S(=O)(=O)c1ccc(-c2ccc(Cl)cc2)cc1` (relative stereo) [Example 1-32, (1R*,2S*)-2-biphenyl-4-yl-1-[carboxymethyl-(4′-chloro-biphenyl-4-sulfonyl)-amino]-cyclopropanecarboxylic acid], the IC50 in assay [1] was < 1 µM; in assay [2] it was ≥ 10 µM.

Consider `CNC(=O)c1cn(CCN([C@]2(C(=O)O)C[C@H]2c2ccccc2)S(=O)(=O)c2ccc(-c3ccc(Cl)cc3)cc2)cn1` (relative stereo) [Example 1-113, (R*,2S*)-1-{(4′-chloro-biphenyl-4-sulfonyl)-[2-(4-methylcarbamoyl-imidazol-1-yl)-ethyl]-amino}-2-phenyl-cyclopropanecarboxylic acid], for which the results for the IC50 in assay [1] and in assay [2] were < 0.1 µM and ≥ 10 µM, respectively.

For `O=C(O)CN([C@]1(C(=O)O)C[C@H]1c1cccc(Cl)c1Cl)S(=O)(=O)c1ccc(-c2ccc(Cl)cc2)cc1` (relative stereo) [Example 1-41, (1R*,2S*)-1-[carboxymethyl-(4′-chloro-biphenyl-4-sulfonyl)-amino]-2-(2,3-dichloro-phenyl)-cyclopropanecarboxylic acid], the half-maximal inhibitory concentration (IC50) in assay [1] is < 0.1 µM; in assay [2], ≥ 10 µM.

In the case of `CS(=O)(=O)Nc1cccc(CN([C@]2(C(=O)O)C[C@H]2c2ccccc2)S(=O)(=O)c2ccc(-c3ccc(Cl)cc3)cc2)c1` (relative stereo) [Example 1-62, (1R*,2S*)-1-[(4′-chloro-biphenyl-4-sulfonyl)-(3-methanesulfonylamino-benzyl)-amino]-2-phenyl-cyclopropanecarboxylic acid], the IC50 is < 1 µM in assay [1] and ≥ 10 µM in assay [2].

On to `O=C(O)c1cccc(CN([C@]2(C(=O)O)C[C@H]2c2cccc(OCCO)c2)S(=O)(=O)c2ccc(-c3ccc(Cl)cc3)cc2)c1` (relative stereo) [Example 1-88, 3-{[{(1R*,2S*)-1-carboxy-2-[3-(2-hydroxy-ethoxy)-phenyl]-cyclopropyl}-(4′-chloro-biphenyl-4-sulfonyl)-amino]-methyl}-benzoic acid], for which the IC50 in assay [1] was < 0.1 µM; in assay [2], ≥ 10 µM.

For `O=C(O)c1cnn(CCN(C2(C(=O)O)CC2c2ccccc2)S(=O)(=O)c2ccc(-c3ccc(Cl)cc3)cc2)c1` (stereo not drawn) [Example 1-79, 1-{2-[(1R*,2S*)-1-carboxy-2-phenyl-cyclopropyl)-(4′-chloro-biphenyl-4-sulfonyl)-amino]-ethyl}-1H-pyrazol-4-carboxylic acid], the results for the IC50 in assay [1] and in assay [2] were < 0.1 µM and ≥ 10 µM, respectively.

Consider `COC(=O)CN([C@]1(C(=O)O)C[C@H]1c1ccccc1)S(=O)(=O)c1ccc(-c2ccc(Cl)cc2)cc1` (relative stereo) [Example 1-46, (1R*,2S*)-1-[(4′-chloro-biphenyl-4-sulfonyl)-methoxycarbonylmethyl-amino]-2-phenyl-cyclopropanecarboxylic acid], for which the IC50 was < 1 µM in assay [1] and ≥ 10 µM in assay [2].

Regarding `O=C(O)c1nccn1CCN([C@]1(C(=O)O)C[C@H]1c1ccccc1)S(=O)(=O)c1ccc(-c2ccc(Cl)cc2)cc1` (relative stereo) [Example 1-78, 1-{2-[((1R*,2S*)-1-carboxy-2-phenyl-cyclopropyl)-(4′-chloro-biphenyl-4-sulfonyl)-amino]-ethyl}-1H-imidazole-2-carboxylic acid], the IC50 in assay [1] was < 1 µM; in assay [2] it was ≥ 10 µM.

Regarding `O=C(O)c1cccc(CN([C@]2(C(=O)O)C[C@H]2c2cccc(OCCN3CCOCC3)c2)S(=O)(=O)c2ccc(-c3ccc(Cl)cc3)cc2)c1` (relative stereo) [Example 1-101, 3-{[{(1R*,2S*)-1-carboxy-2-[3-(2-morpholin-4-yl-ethoxy)-phenyl]-cyclopropyl}-(4′-chloro-biphenyl-4-sulfonyl)-amino]-methyl}-benzoic acid], the IC50 was < 1 µM in assay [1] and ≥ 10 µM in assay [2].

`CC(C)(CN([C@]1(C(=O)O)C[C@H]1c1ccccc1)S(=O)(=O)c1ccc(-c2ccc(Cl)cc2)cc1)C(=O)O` (relative stereo) [Example 1-37, (1R*,2S*)-1-[(2-carboxy-2-methyl-propyl)-(4′-chloro-biphenyl-4-sulfonyl)-amino]-2-phenyl-cyclopropanecarboxylic acid]: the IC50 in assay [1] is < 1 µM; in assay [2] it was ≥ 10 µM.

In the case of `O=C(O)CN([C@]1(C(=O)O)C[C@H]1c1ccccc1-c1ccccc1)S(=O)(=O)c1ccc(-c2ccc(Cl)cc2)cc1` (relative stereo) [Example 1-26, (1R*,2S*)-2-biphenyl-2-yl-1-[carboxymethyl-(4′-chloro-biphenyl-4-sulfonyl)-amino]-cyclopropanecarboxylic acid], the half-inhibitory concentration (IC50) in assay [1] was < 1 µM; in assay [2], ≥ 10 µM.

As to `O=C(O)[C@@]1(N(CCO)S(=O)(=O)c2ccc(-c3ccc(Cl)cc3)cc2)C[C@H]1c1cccc(Oc2ccccc2)c1` (relative stereo) [Example 1-114, (1R*,2S*)-1-[(4′-chloro-biphenyl-4-sulfonyl)-(2-hydroxy-ethyl)-amino]-2-(3-phenoxy-phenyl)-cyclopropanecarboxylic acid], the IC50 in assay [1] is < 1 µM; in assay [2], ≥ 10 µM.
